# Results taken from patent US12414983B2, “CD200AR ligands for cancer immunotherapy” (REGENTS OF THE UNIVERSITY OF MINNESOTA, priority 2019, dated 2025).
# Entries after “also recorded” stand apart in the source; their conditions may differ.
# Key:
# [1] = system: spontaneously occurring glioblastoma; test: Canine study: tumor resection plus canine CD200AR-L and autologous tumor lysate vaccination; type: in vivo, dog; conditions: canine glioma model
# Method: Canine study. Pet dogs with a solitary intra-axial mass found by magnetic resonance imaging (MRI) were recruited into a pilot study to assess the effect of a canine-specific peptide. The MRIs were performed to find the causes of generalized seizure activity or behavioral changes, and anti-epileptic drug therapy and corticosteroids were prescribed to control seizures and minimize cerebral edema, respectively. Additional inclusion criteria were 1) tumor suitable for surgical resection, 2) informed consent provided by the dog's owner, 3) normal mentation status at the time of surgery, and 4) no previous definitive therapy for the suspected glioma.
# All dogs underwent surgical resection of the intra-axial mass for maximal tumor debulking. The removed tumors were immediately processed to generate autologous tumor lysates. The lysates were prepared by culturing single-cell suspensions from minced fresh tumor samples at 37° C. in 5% […]. […] An immediate postoperative MRI was performed to assess the extent of resection and to quantify any residual tumor volume. Tumor volume was measured using the planimetry method, which outlines the tumor perimeter on each MR slice; Osirix software was used to calculate the area, and then the areas were summed and multiplied by slice thickness plus gap width. After recovery from anesthesia, all dogs were monitored in the intensive care unit for at least 24 hours. […]
# Human CD14+ cells = test: Cytokine measurements in CD14+ cells pulsed with CD200AR-L peptide; type: cell-based; conditions: selection among 61 alanine-substituted peptides
# Method: Cytokine measurements. Human CD14^+ cells (5×10^5) were isolated from peripheral blood mononuclear cells (PBMCs) using anti-CD14 beads (BD Biosciences, San Jose, CA), typically yielding ≥70% recovery and ≥90% purity. Cells were pulsed with 2 μM CD200AR-L peptide and incubated for 48 h, after which the supernatants were analyzed by bead array for cytokine production (BD Biosciences, San Jose, CA).
# CD14+ cells [2] = test: RNAseq / NanoString gene expression analysis of pulsed CD14+ cells; type: cell-based, human
# Description: Nanostring gene expression analysis: Total RNA from CD14^+ cells was sent to New Zealand Genomics Limited (Dunedin, New Zealand) to measure the expression of genes that are differentially expressed during inflammation (nCounter GX, NanoString Technologies, Seattle, WA, USA). Briefly, total RNA was extracted from CD14^+ cells (MagJET RNA kit, Thermo Fisher Scientific, Waltham, MA) using the protocol adapted for tissue (KingFisher Duo machine, Thermo Fisher Scientific, Waltham, MA). RNA samples were then quantified (Qubit® 2.0 fluorometer, Thermo Fisher Scientific) and subjected to RNA integrity analysis (2100 Bioanalyzer, Agilent Technologies, Santa Clara, CA). Probes for the genes encoding CD44 (NM_001001392.1); NANOG (NM_024865.2); OCT4 (NM_002701.4); STAT3 (NM_139276.2); and the housekeeping genes glucuronidase beta (NM_000181.1), clathrin heavy chain (NM 4859.2), and hypoxanthine phosphoribosyltransferase 1 (NM_000194.1) were designed and manufactured by NanoString Technologies.
# Expression data obtained with NanoString GX were analyzed by using nSolver Analysis Software 3.0 (nanostring.com/products/nSolver) with default settings, and normalized to housekeeping genes. nSolver was used to perform cluster analysis and to generate heat maps by using Java Treeview Version 1.1.6r4. Pathway analysis was performed by using the PathCards Pathway Unification Database (pathcards.genecards.org). Student's t-tests were used to determine significant differences (p<0.05).
# CD14+ cells [3] = test: Dendritic cell maturation: phenotyping for CD80, CD86, HLA-DR; type: cell-based, human; conditions: peptide alone compared with GM-CSF+IL4, p<0.0001
# Method: FIGS. 4A-4D. Targeting CD200 activation receptors enhances dendritic cell maturation. (FIGS. 4A, 4B) CD14 purified cells were pulsed with (FIG. 4A) GM-CSF+IL4 or equal molar ratios of peptides P1A8, P2A0, or P4A10 or (FIG. 4B) GM-CSF+IL4 plus equal molar ratios of peptides P1A8, P2A0, or P4A10 and incubated for 48 h. Cells were harvested and phenotyped for CD80, CD86, and HLA-DR. (FIG. 4C) Immature dendritic cells from donors with or without CMV were pulsed with the CMV antigen pp65+/−equal molar ratios of peptides P1A8, P2A0, or P4A10. Cells were washed, and autologous T-cells were added back and incubated for a further 48 h. Supernatants were analyzed for IFNγ production. (FIG. 4D) Immature dendritic cells were pulsed with the CMV antigen pp65+/−P4A10. After the cells were washed, autologous T-cells were added back and incubated for a further 48 h. Supernatants were analyzed for IFNγ, IL-6, TNFα and RANTES content. Error bars represent standard deviation (n=3 healthy donors/group, *P<0.05, **P<0.005, ***P<0.0005 by t-test). The data represent three separate healthy donors. Black bars represent CMV-negative donors.
# Targeting CD200 activation receptors enhances dendritic cell maturation. TNF-regulated cytokines (Table 1) have been implicated in dendritic cell maturation. […] To substantiate this, CD14^+ cells were isolated from healthy human donors and pulsed with GM-CSF+IL4, P1A8, P2A0, or P4A10 27. Cells pulsed with P1A8, P2A0, and P4A10 expressed higher levels of the co-stimulatory molecules CD80, CD86, and HLA-DR than cells treated with GM-CSF+IL4 (p<0.0001; FIG. 4a). Moreover, we observed synergistic upregulation of CD80/86 and HLA-DR when CD14^+ cells were incubated with GM-CSF+IL4 and each of the peptides (p<0.0001) (FIG. 4b).
# human CD14 cells = test: CD200R1 and PD-1 on human CD14 cells pulsed with human CD200AR-L, flow cytometry; type: cell-based; conditions: mean fluorescent intensity
# Method: FIGS. 7A-7G. CD200AR-L pulses down-regulate inhibitory CD200R1. Murine CD11b cells were pulsed with mCD200AR-L, RNA was extracted and analyzed for CD200R1 or PD-1 expression (FIGS. 7A&B). To further these studies, CD11b cells were stimulated with OVA+/−CD200AR-L, cells were washed and purified T cells were added. Following 24 hr incubation, T-cells were isolated and analyzed for CD200R1 or PD-1 expression (FIGS. 7C&D). To see if these experiments translated to humans, CD14 cells were pulsed with our human CD200AR-L. Following 24 hr incubation, cells were stained with anti-CD200R1 analyzed by flow cytometry (FIG. 7E), mean fluorescent intensity was analyzed for CD200R1 (FIG. 7F) and PD-1 (FIG. 7G) expression. […] Error bars represent standard deviation (n=3/group, *P<0.05, **P<0.005, ***P<0.0005, ****P<0.00005 by t-test.
# FIGS. 13A-13F. Figure. […] Murine CD11b cells were pulsed CD200AR-L and analyzed for transcription levels of (FIG. 13A) CD200R1 and (FIG. 13B) PD-1; Human CD14 cells were pulsed with human CD200AR-L, following 48 hr incubation, cells were analyzed by flow cytometry for (FIG. 13C) CD200R1 and (FIG. 13D) PD-1 expression; murine CD11b cells from wildtype mice were pulsed with OVA+/− the CD200AR-L. Cells were washed, purified CD3 cells were added to CD11b cells for 24 hrs. CD3 cells were purified and analyzed for transcription levels of (FIG. 13E) CD200R1 and (FIG. 13F) PD-1. […]
# Murine CD11b cells = test: PMA-activated murine CD11b cells treated with PD-L1 +/- murine CD200AR-L, cytokines; type: cell-based; conditions: PD-L1 with or without murine CD200AR-L, 48 hr
# Description: FIGS. 8A-8C. CD200AR-L pulses overpowers the suppressive PD-L1.
# Murine splenocytes = test: Splenocytes activated with PMA +/- PD-L1 or PD-L1+CD200AR-L, cytokines; type: cell-based; conditions: 48 hr
# Method: FIGS. 11A-11C. […] Murine splenocytes were activated with PMA, +/−PD-L1 or PD-L1+mCD200AR-L. Following 48 hr incubation, supernatants were analyzed for (FIG. 11A) TNFα (FIG. 11B) IL-4 or (FIG. 11C) IL-5. Error bars are representative of n=3; *P<0.005.
# The CD200 and PD-1 pathways crosstalk, allowing CD200AR-L to override the suppressive PD-L1. […] To evaluate the effect of CD200AR-L on PD-1/PD-L1, splenocytes were activated with PMA+/−PD-L1 or PD-L1+CD200AR-L, and supernatants were analyzed for TNFα, IL-4 and IL-5 production (FIG. 11A-11C). As observed with the CD200 protein (FIG. 11B), PD-L1 induced an immune suppressed environment as measured by cytokine production; however, PD-L1 reduced the production of TNFα, IL-4 and IL-5 induced by PMA, which was restored by the addition of CD200AR-L. These experiments led to the hypothesis that the CD200 and PD-1 pathways are connected.
# Splenocytes = Splenocytes pulsed with CD200 or PD-L1 +/- mCD200AR-L, flow cytometry for CTLA4 and PD-L1; type: cell-based
# Method: FIGS. 14A-14C. […] Splenocytes were pulsed with CD200, PD-L1+/−mCD200AR-L. Cells were analyzed by flow cytometry for the (FIG. 14A) CD4^+CTLA4^+, (FIG. 14B) CD8^+CTLA4^+or (FIG. 14C) CD11b^+PD-L1^+ populations. Error bars are representative of n=2 *P<0.005, **P<0.0001.
# We propose that soluble CD200 and PD-L1 inhibit T cell activation through multiple checkpoints (FIG. 10). Therefore, the effect of multiple suppressive molecules (CD200 and PD-L1) on T cell inhibition was investigated. […] In addition, following PD-L1 treatment, an upregulation of PD-L1 on CD11b and an upregulation of CTLA4 was observed on T cells. Being CTLA4 and PD-L1 propagate separate inhibitory signals, it was hypothesized that PD-L1 inhibits T cell activation through 1) direct CD200 and PD-L1 on T cells and 2) direct PD-L1 (on APCs)/PD-I (on […]) producing cytokines upregulating CTLA4, which would explain the enhanced responses seen in combination α-PD-1 and α-CTLA4 treatments. However, neither of them inhibit CD200 effect on T cells.
# We next looked at the effects of CD200AR-L on T cell inhibition. […] Being CTLA4 and PD-L1 propagate separate inhibitory signals, we hypothesize that PD-L1 inhibits T cell activation through two separate mechanisms, 1) through direct PD-L1 (on APCs)/PD-I (on T cells) interactions and through cytokine production following PD-L1 binding to the PD-1 on CD11b cell, which would explain the enhanced responses seen in combination α-PD-1 and α-CTLA4 treatments.
# murine glioma model = test: Murine glioma model survival; type: in vivo
# [4] = splenocytes pulsed with CD200 or PD-L1
substance,measurement,setting,value
CLFNTFGSGAISGTA (Ac-CLFNTFGSGAISGTA-NH2; listed as Canis lupus) [canine P4A10],survival benefit,[1],significant survival benefit
IVTWQKKAAVSPENM (Ac-IVTWQKKAAVSPENM-NH2; listed as Homo sapiens) [P1A8],secretion of inflammatory cytokines from CD14+ cells,Human CD14+ cells,maximally stimulated
same,mRNA expression of TNF-regulated cytokines,"CD14+ cells [2]; NanoString platform, FIG. 3b",most potently and consistently induced
same,mRNA expression of cytokines released in response to TNF signaling,"CD14+ cells [2]; RNAseq, CD14+ cells",notable increase
same,"levels of co-stimulatory molecules CD80, CD86, and HLA-DR",CD14+ cells [3],higher levels
same,PD-1 expression on human CD14 cells,human CD14 cells,down regulated
"PD-L1: programmed cell death ligand 1, suppressive protein used to pulse cells","activation of CD11b cells (TNFalpha, IL4, IL5 in supernatant)",Murine CD11b cells,suppressed the activation
same,"production of TNFα, IL-4 and IL-5",Murine splenocytes,reduced
same,CTLA4 on CD4 cells,Splenocytes; [4],upregulated
same,CTLA4 on CD8 cells,Splenocytes; [4],upregulated
same,PD-L1 on CD11b cells,Splenocytes; [4],upregulation; also recorded: upregulated
same,CTLA4 on T cells,"Splenocytes; total splenocytes, following PD-L1 treatment",upregulation
VTWQKKKAVSPANM (Ac-VTWQKKKAVSPANM-NH2; listed as Mus musculus) [murine P1A12],survival benefit,murine glioma model,significant survival benefit
